# Measured values published in ChEMBL document CHEMBL1126481, “Low molecular weight neurokinin NK2 antagonists” (Bioorg Med Chem Lett, 1993).
# Peptide text beside a SMILES is read from it.
# How the values were obtained:
# [1] = target: T1, Substance-K receptor (Rattus norvegicus) (UniProt P16610); test: In vitro for antagonism against neurokinin NK2 receptor in rat colon muscularis mucosae; assay type: functional, tissue-based; details: Muscularis mucosa
# T1 sequence (whole entry): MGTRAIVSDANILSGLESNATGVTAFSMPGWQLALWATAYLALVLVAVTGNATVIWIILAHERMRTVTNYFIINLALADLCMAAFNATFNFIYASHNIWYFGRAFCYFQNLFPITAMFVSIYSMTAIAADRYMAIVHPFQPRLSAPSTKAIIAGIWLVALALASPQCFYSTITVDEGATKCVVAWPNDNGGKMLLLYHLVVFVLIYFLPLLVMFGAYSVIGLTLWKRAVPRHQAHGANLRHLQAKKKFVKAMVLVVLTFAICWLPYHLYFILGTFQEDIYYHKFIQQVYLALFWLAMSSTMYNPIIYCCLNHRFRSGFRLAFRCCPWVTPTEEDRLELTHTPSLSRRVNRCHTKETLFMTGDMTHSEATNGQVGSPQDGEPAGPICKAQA
# [2] = target: T2, Substance-K receptor (Cavia porcellus) (UniProt Q64077); test: The compound was tested […] for antagonism against neurokinin NK2 receptor in isolated guinea pig trachea.; assay type: functional
# T2 sequence (whole entry): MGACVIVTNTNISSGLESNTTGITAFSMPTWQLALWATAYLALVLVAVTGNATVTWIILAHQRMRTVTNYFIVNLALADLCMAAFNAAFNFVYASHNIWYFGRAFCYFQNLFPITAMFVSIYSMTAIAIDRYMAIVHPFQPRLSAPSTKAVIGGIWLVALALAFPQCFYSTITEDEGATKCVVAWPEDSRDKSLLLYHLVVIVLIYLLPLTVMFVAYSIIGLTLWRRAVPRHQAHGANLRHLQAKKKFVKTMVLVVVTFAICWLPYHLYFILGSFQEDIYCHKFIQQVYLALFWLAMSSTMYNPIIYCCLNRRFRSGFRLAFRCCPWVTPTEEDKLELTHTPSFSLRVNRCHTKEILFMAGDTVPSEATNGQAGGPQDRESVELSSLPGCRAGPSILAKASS
# [3] = Biological half life when administered at 0.1 umol/kg intravenously to guinea pig in GR-64349 antagonism; assay type: ADME, organism-based, Cavia porcellus; details: in vivo, iv
# [4] = target: Substance-P receptor (Cavia porcellus) (UniProt P30547); test: The compound was tested […] for antagonism against neurokinin NK1 receptor in isolated guinea pig trachea.; assay type: functional
# [5] = target: T1, Substance-K receptor (Rattus norvegicus); test: The compound was tested in vitro for antagonism against Tachykinin receptor 2 in rat colon muscularis mucosae.; assay type: functional, tissue-based; details: Muscularis mucosa
# [6] = target: T2, Substance-K receptor (Cavia porcellus); test: The compound was tested in vitro for antagonism against Tachykinin receptor 2 in isolated guinea pig trachea; assay type: functional, tissue-based
# [7] = Biological half life when administered at 5 umol/kg intravenously to guinea pig in GR-64349 antagonism; assay type: ADME, organism-based, Cavia porcellus; details: in vivo, iv
# [8] = species on record: Oryctolagus cuniculus; test: Tested for antagonistic activity of compound in endothelium-deprived rabbit pulmonary artery; assay type: functional; details: read-out: pA2 (converted)
# Sequence of Substance-P receptor (Cavia porcellus) (P30547 whole entry): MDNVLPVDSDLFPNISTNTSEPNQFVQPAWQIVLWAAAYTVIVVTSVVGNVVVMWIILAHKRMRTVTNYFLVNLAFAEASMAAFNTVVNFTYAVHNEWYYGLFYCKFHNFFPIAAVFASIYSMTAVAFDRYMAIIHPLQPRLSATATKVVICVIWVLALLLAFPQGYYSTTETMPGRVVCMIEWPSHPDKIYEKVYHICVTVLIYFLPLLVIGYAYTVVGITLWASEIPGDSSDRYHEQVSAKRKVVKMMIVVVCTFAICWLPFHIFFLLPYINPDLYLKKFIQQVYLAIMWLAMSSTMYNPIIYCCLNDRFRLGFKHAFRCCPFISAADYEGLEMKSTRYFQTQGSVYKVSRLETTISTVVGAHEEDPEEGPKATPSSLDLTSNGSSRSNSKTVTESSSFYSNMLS
pKB [1],SMILES,further results
9.05,C[C@H](NC(=O)CNC(=O)C1CCCCC1)C(=O)N[C@H](Cc1c[nH]c2ccccc12)C(=O)N[C@@H](Cc1ccccc1)C(=O)N(C)C (HELM PEPTIDE1{[O=C(C1CCCCC1)[*:2]].G.A.[dW].F.[CN(C)[*:1]]}$$$$V2.0),pKB [2]: 9.3; half-life [3]: 26 min; pKB [4]: 5.1
< 5,CC(Cc1c[nH]c2ccccc12)NC(=O)[C@H](C)NC(=O)[C@H](C)NC(=O)c1ccccc1 (some centres not stated),pKB [5]: 6.66; pKB [6]: 7.4
7.64,CC(C)CCN(C)C(=O)[C@@H](Cc1c[nH]c2ccccc12)NC(=O)[C@H](C)NC(=O)c1c[nH]c(-c2ccccc2)n1,half-life [7]: 140 min; pKB [2]: 7.9; pKB [4]: 4.9
6.6,C[C@H](NC(=O)c1ccccc1)C(=O)N[C@@H](C)C(=O)N[C@H](Cc1c[nH]c2ccccc12)C(=O)N[C@@H](Cc1ccccc1)C(=O)O,
8.87,C[C@H](NC(=O)CNC(=O)c1ccccc1)C(=O)N[C@H](Cc1c[nH]c2ccccc12)C(=O)N[C@@H](Cc1ccccc1)C(=O)N(C)C,
6.45,C[C@H](NC(=O)c1ccccc1)C(=O)N[C@@H](C)C(=O)N[C@H](Cc1c[nH]c2ccccc12)C(=O)N(C)C,
8.56,C[C@H](NC(=O)c1ccccc1)C(=O)N[C@@H](C)C(=O)N[C@H](Cc1c[nH]c2ccccc12)C(=O)N[C@@H](Cc1ccccc1)C(=O)N(C)C,
8,CC(C)CCN(C)C(=O)[C@@H](Cc1c[nH]c2ccccc12)NC(=O)[C@H](C)NC(=O)[C@H](C)NC(=O)c1ccccc1,
,CC(=O)NC1(c2ccccc2)CCN(CC[C@H](CN(C)C(=O)c2ccccc2)c2ccc(Cl)c(Cl)c2)CC1 [SAREDUTANT],Kb [8]: 0.0501 nM
6.8,C[C@H](NC(=O)c1ccccc1)C(=O)N[C@@H](C)C(=O)N[C@H](C#N)Cc1c[nH]c2ccccc12,half-life [7]: 20 min; pKB [2]: 7.4
6.02,C[C@H](NC(=O)c1ccccc1)C(=O)N[C@@H](C)C(=O)NCCc1c[nH]c2ccccc12,
7.4,C[C@H](NC(=O)c1ccccc1)C(=O)N[C@@H](C)C(=O)N[C@H](Cc1c[nH]c2ccccc12)C(=O)N(C)CCc1ccccc1,
